For one data set, the target named is T1, mouse DGAT1 (Mus musculus, UniProt Q9Z2A7).
T1 construct: made in house; host or cells: insect cells (High Five, Sf9, Sf21, etc.), baculovirus expression system (Invitrogen)
T1 sequence (Q9Z2A7 1-498): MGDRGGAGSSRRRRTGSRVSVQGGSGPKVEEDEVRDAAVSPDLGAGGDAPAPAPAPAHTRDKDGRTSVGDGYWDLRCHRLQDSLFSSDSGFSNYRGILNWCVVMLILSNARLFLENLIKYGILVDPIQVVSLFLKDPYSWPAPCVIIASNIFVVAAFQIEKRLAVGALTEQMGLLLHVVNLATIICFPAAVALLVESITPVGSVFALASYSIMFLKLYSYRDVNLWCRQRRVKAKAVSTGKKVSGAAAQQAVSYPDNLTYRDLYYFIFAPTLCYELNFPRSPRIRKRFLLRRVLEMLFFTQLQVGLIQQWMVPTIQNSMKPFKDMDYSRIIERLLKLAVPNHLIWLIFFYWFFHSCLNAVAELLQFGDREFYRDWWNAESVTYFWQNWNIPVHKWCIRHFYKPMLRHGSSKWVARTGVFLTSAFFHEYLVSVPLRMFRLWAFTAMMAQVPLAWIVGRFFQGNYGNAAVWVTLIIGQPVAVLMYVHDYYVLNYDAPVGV
Kind of data set: DGAT1 inhibitory effect test (microsome fraction, [14C]-oleoyl-CoA, triglyceride radioactivity by TLC). The format is biochemical. The settings on record: 0.5 h; concentration of the test compound 0.1 μg/ml; mouse DGAT1 microsomes, 23° C., 30 minutes; read-out: Inhibitory ratio. The gist of the method:
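Baculovirus-expressed mouse DGAT1 insect-cell microsomes (10 μg) were incubated 30 min at 23 °C, pH 8.0, with 0.5 mM 1,2-dioleoyl-sn-glycerol, 30 μM [14C]-oleoyl-CoA and 0.5% Triton X-100. [14C]-triglyceride was quantified after heptane extraction and TLC. Percent inhibition was taken against vehicle control, with 0-min background subtracted.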

Take `COc1ccc(C)cc1NC(=O)Nc1ccc(N2CCN(C(=O)Nc3ccc(OCCO)cc3C)CC2)nc1` [Example 219, 4-{5-[3-(2-methoxy-5-methyl-phenyl)-ureido]-pyridin-2-yl}-piperazine-1-carboxylic acid [4-(2-hydroxy-ethoxy)-2-methyl-phenyl]-amide]: the melting point (commonly the temperature of the solid-liquid transition) lay within 189 to 190 °C. Moreover, the inhibition at 0.1 µg/mL on mouse DGAT1 was not below 50%.

`COc1ccc(C)cc1NC(=O)Nc1ccc(N2CCN(C(=O)Nc3ccc(OCCO)cc3C(F)(F)F)CC2)nc1` [Example 220, 4-{5-[3-(2-methoxy-5-methyl-phenyl)-ureido]-pyridin-2-yl}-piperazine-1-carboxylic acid [4-(2-hydroxy-ethoxy)-2-trifluoromethyl-phenyl]-amide] displayed a melting point of 198 to 200 °C. In addition, the inhibition at 0.1 µg/mL on mouse DGAT1 was not below 50%.

`O=C(Nc1ccc(N2CCN(C(=O)Nc3ccc(OCCO)cc3C(F)(F)F)CC2)c(Cl)c1)Nc1ccccc1F` [Example 221, 4-{2-chloro-4-[3-(2-fluoro-phenyl)-ureido]-phenyl}-piperazine-1-carboxylic acid [4-(2-hydroxy-ethoxy)-2-trifluoromethyl-phenyl]-amide] registered a melting point of 199 to 200 °C. In addition, on mouse DGAT1, the inhibition at 0.1 µg/mL is not below 50%.

`O=C(Nc1ccc(N2CCN(C(=O)Nc3ccc(OCCO)cc3C(F)(F)F)CC2)nc1)Nc1ccccc1F` [Example 222, 4-{5-[3-(2-fluoro-phenyl)-ureido]-pyridin-2-yl}-piperazine-1-carboxylic acid [4-(2-hydroxy-ethoxy)-2-trifluoromethyl-phenyl]-amide] showed a melting point of 193 to 194 °C. The inhibition at 0.1 µg/mL on mouse DGAT1 was not below 50%.

`COc1ccc(F)cc1NC(=O)Nc1ccc(N2CCN(C(=O)Nc3ccc(OCCO)cc3C(F)(F)F)CC2)nc1` [Example 223, 4-{5-[3-(5-fluoro-2-methoxy-phenyl)-ureido]-pyridin-2-yl}-piperazine-1-carboxylic acid [4-(2-hydroxy-ethoxy)-2-trifluoromethyl-phenyl]-amide] registered a melting point of 172 to 173 °C. Besides, on mouse DGAT1, the inhibition at 0.1 µg/mL was not below 50%.

The compound `CC(C)(C)c1csc(NC(=O)Nc2ccc(N3CCN(C(=O)Nc4ccc(OCCO)cc4C(F)(F)F)CC3)cc2)n1` [Example 224, 4-{4-[3-(4-tert-butyl-thiazol-2-yl)-ureido]-phenyl}-piperazine-1-carboxylic acid [4-(2-hydroxy-ethoxy)-2-trifluoromethyl-phenyl]-amide] came in with a melting point of 130 to 132 °C. Further, the inhibition at 0.1 µg/mL on mouse DGAT1 is not below 50%.

With `Cc1nc(NC(=O)Nc2ccc(N3CCN(C(=O)Nc4ccc(OCCO)cc4C(F)(F)F)CC3)cc2)sc1C` [Example 225, 4-{4-[3-(4,5-dimethyl-thiazol-2-yl)-ureido]-phenyl}-piperazine-1-carboxylic acid [4-(2-hydroxy-ethoxy)-2-trifluoromethyl-phenyl]-amide], the melting point is 166 to 167 °C. On mouse DGAT1, the inhibition at 0.1 µg/mL is not below 50%.

Compound `COc1ccc(C)cc1NC(=O)Nc1ccc2c(c1)CCN(C(=O)Nc1ccc(OCCO)cc1C(F)(F)F)C2` [Example 226, 6-[3-(2-methoxy-5-methyl-phenyl)-ureido]-3,4-dihydro-1H-isoquinoline-2-carboxylic acid [4-(2-hydroxy-ethoxy)-2-trifluoromethyl-phenyl]-amide] came in with a melting point of 122 to 124 °C. The inhibition at 0.1 µg/mL at mouse DGAT1 was not below 50%.

Compound `O=C(Nc1ccc2c(c1)CCN(C(=O)Nc1ccc(OCCO)cc1C(F)(F)F)C2)Nc1ccccc1F` [Example 227, 6-[3-(2-fluoro-phenyl)-ureido]-3,4-dihydro-1H-isoquinoline-2-carboxylic acid [4-(2-hydroxy-ethoxy)-2-trifluoromethyl-phenyl]-amide] displayed a melting point of 162 to 164 °C. In addition, the inhibition at 0.1 µg/mL on mouse DGAT1 was not below 50%.

For the compound `COc1ccc(C)cc1NC(=O)Nc1ccc(C2CCN(C(=O)Nc3c(C)cccc3Cl)CC2)cc1` [Example 228, 4-{4-[3-(2-methoxy-5-methyl-phenyl)-ureido]-phenyl}-piperidine-1-carboxylic acid (2-chloro-6-methyl-phenyl)-amide], the melting point fell in the range of 234 to 236 °C. Further, on mouse DGAT1, the inhibition at 0.1 µg/mL is not below 50%.

Regarding `O=C(Nc1ccc(C2=CCN(C(=O)Nc3ccc(OCCO)cc3C(F)(F)F)CC2)cc1)Nc1ccccc1F` [Example 229, 4-{4-[3-(2-fluoro-phenyl)-ureido]-phenyl}-3,6-dihydro-2H-pyridine-1-carboxylic acid [4-(2-hydroxy-ethoxy)-2-trifluoromethyl-phenyl]-amide], the melting point lay within 110 to 112 °C. Besides, at mouse DGAT1, the inhibition at 0.1 µg/mL is not below 50%.

`COc1ccc(C)cc1NC(=O)Nc1ccc(C2=CCN(C(=O)Nc3ccc(OCCO)cc3C(F)(F)F)CC2)cc1` [Example 230, 4-{4-[3-(2-methoxy-5-methyl-phenyl)-ureido]-phenyl}-3,6-dihydro-2H-pyridine-1-carboxylic acid [4-(2-hydroxy-ethoxy)-2-trifluoromethyl-phenyl]-amide] had a melting point of 150 to 153 °C. On mouse DGAT1, the inhibition at 0.1 µg/mL is not below 50%.

The compound `COc1ccc(C)cc1NC(=O)Nc1ccc(N2CCN(C(=O)Nc3cc(OCCO)ccc3Cl)CC2)cc1` [Example 231, 4-{4-[3-(2-methoxy-5-methyl-phenyl)-ureido]-phenyl}-piperazine-1-carboxylic acid [2-chloro-5-(2-hydroxy-ethoxy)-phenyl]-amide] registered a melting point of 121 to 124 °C. Further, the inhibition at 0.1 µg/mL at mouse DGAT1 was not below 50%.

Compound `COc1ccccc1NC(=O)Nc1ccc(N2CCN(C(=O)Nc3cc(OCCO)ccc3Cl)CC2)cc1` [Example 232, 4-{4-[3-(2-methoxy-phenyl)-ureido]-phenyl}-piperazine-1-carboxylic acid [2-chloro-5-(2-hydroxy-ethoxy)-phenyl]-amide] came in with a melting point of 179 to 180 °C. The inhibition at 0.1 µg/mL on mouse DGAT1 is not below 50%.

With `CCOc1cccc(NC(=O)Nc2ccc(N3CCN(C(=O)Nc4cc(OCCO)ccc4Cl)CC3)cc2)c1` [Example 233, 4-{4-[3-(3-ethoxy-phenyl)-ureido]-phenyl}-piperazine-1-carboxylic acid [2-chloro-5-(2-hydroxy-ethoxy)-phenyl]-amide], the melting point lay in the range of 196 to 197 °C. Further, the inhibition at 0.1 µg/mL on mouse DGAT1 was not below 50%.

For `COc1cc(NC(=O)Nc2ccc(N3CCN(C(=O)Nc4cc(OCCO)ccc4Cl)CC3)cc2)cc(OC)c1` [Example 234, 4-{4-[3-(3,5-dimethoxy-phenyl)-ureido]-phenyl}-piperazine-1-carboxylic acid [2-chloro-5-(2-hydroxy-ethoxy)-phenyl]-amide], the melting point was 191 to 192 °C. For the same compound, the inhibition at 0.1 µg/mL on mouse DGAT1 was not below 50%.

For the compound `COc1ccccc1NC(=O)Nc1ccc(N2CCN(C(=O)Nc3cc(OCCO)ccc3Cl)CC2)nc1` [Example 235, 4-{5-[3-(2-methoxy-phenyl)-ureido]-pyridin-2-yl}-piperazine-1-carboxylic acid [2-chloro-5-(2-hydroxy-ethoxy)-phenyl]-amide], the melting point is 139 to 141 °C. Also, the inhibition at 0.1 µg/mL at mouse DGAT1 is not below 50%.

In the case of `CCOc1cccc(NC(=O)Nc2ccc(N3CCN(C(=O)Nc4cc(OCCO)ccc4Cl)CC3)nc2)c1` [Example 236, 4-{5-[3-(3-ethoxy-phenyl)-ureido]-pyridin-2-yl}-piperazine-1-carboxylic acid [2-chloro-5-(2-hydroxy-ethoxy)-phenyl]-amide], the melting point was 140 to 143 °C. The inhibition at 0.1 µg/mL on mouse DGAT1 was not below 50%.

Take `Cc1nc(NC(=O)Nc2ccc(N3CCN(C(=O)Nc4cc(OCCO)ccc4Cl)CC3)nc2)sc1C` [Example 237, 4-{5-(3-(4,5-dimethyl-thiazol-2-yl)-ureido)-pyridin-2-yl}-piperazine-1-carboxylic acid {2-chloro-5-(2-hydroxy-ethoxy)-phenyl}-amide]: the melting point fell in the range of 128 to 129 °C. The inhibition at 0.1 µg/mL on mouse DGAT1 was not below 50%.

In turn, `COc1ccc(C)cc1NC(=O)Nc1ccc(N2CCN(C(=O)Nc3cc(OCCO)ccc3Cl)CC2)nc1` [Example 238, 4-{5-[3-(2-methoxy-5-methyl-phenyl)-ureido]-pyridin-2-yl}-piperazine-1-carboxylic acid [2-chloro-5-(2-hydroxy-ethoxy)-phenyl]-amide] came in with a melting point of 132 to 134 °C. Besides, on mouse DGAT1, the inhibition at 0.1 µg/mL was not below 50%.

In turn, `COc1ccc(C)cc1NC(=O)Nc1ccc(N2CCN(C(=O)Nc3ccc(OCCO)cc3C(F)(F)F)CC2)c(C)c1` [Example 239, 4-{4-[3-(2-methoxy-5-methyl-phenyl)-ureido]-2-methyl-phenyl}-piperazine-1-carboxylic acid [4-(2-hydroxy-ethoxy)-2-trifluoromethyl-phenyl]-amide] displayed a melting point of 225 to 228 °C. Moreover, the inhibition at 0.1 µg/mL on mouse DGAT1 is not below 50%.

These data come from US20070249620A1, “Urea Derivative” (priority 2004, published 2007).
